Laboratory results as given in PubChem BioAssay AID2060626 (Molecular Pharmacology Branch, DTP, NCI, 2025).
“And” between values parts separate entries of the source, which are not always exact repeats. Identical values can stand only once.

Tested on: 168753-222-R-J1-PDC complex spheroid viability
Test: Anticancer human tumor 168753-222-R-J1-PDC patient-derived bladder carcinoma cell line growth inhibition [CLK]
Details: for viability, T/C: stronger effect = lower value
Excerpt: A high-throughput screen of multi-cell type tumor spheroids was designed to identify active combinations of […] and targeted small molecules. Complex spheroids include a stromal component modeled by human endothelial cells (HUVEC) and fibroblasts modeled by human mesenchymal stem cells (MSCs). The concentration ranges selected for each drug and investigational agent were based upon clinically achievable concentrations if the clinical Cmax of the agent was known.
Compounds. The drugs and investigational agents: cirtuvivint (SM08502; NSC835563), CC-671 (NSC850746), vemurafenib (NSC761431), tapotoclax (NSC804041), sotorasib (NSC818433), adagrasib (NSC831453), MRTX-1133 (NSC836407), BAY2416964 (NSC825713), copanlisib (NSC816437), inavolisib (NSC800729), abemaciclib (NSC768073), osimertinib (NSC779217), entinostat (NSC756642), eltanexor (KPT-8602, NSC794443), venetoclax (NSC766270), ceralasertib (NSC777638), bortezomib (NSC756655), olaparib (NSC753686), talazoparib (NSC767125), alisertib (NSC759677), peposertib (NSC802822), gemcitabine (NSC613327), 5-fluorouracil (NSC19893), SN-38 (NSC673596), oxaliplatin (NSC266046), paclitaxel (NSC125973), and doxorubicin (NSC123127), were obtained from the National Cancer Institute (NCI) Developmental Therapeutics Program Chemical Repository. The FDA-approved anticancer drug set is available from the Developmental Therapeutics Program at https://dtp.cancer.gov/organization/dscb/obtaining/available plates.htm. […] The stock solutions were prepared in dimethyl sulfoxide (DMSO, Sigma-Aldrich, St. Louis, MO, cat. D2650), except for the platinum complexes which were prepared in saline (Quality Biological, Gaithersburg, MD, cat. 114-055-101), at 800-fold the tested concentration and stored at -70 degrees C prior to their use. All drugs and investigational agents were tested over a range starting from a high concentration at or near the clinical Cmax and decreasing in half-log increments. If the clinical Cmax for an agent had not been determined, the highest concentration tested was 10 microM.
Cell Culture. All cells were maintained in an incubator at 37 degrees C and 5% CO2 with 95% humidity. The PDC lines were cultured according to standard operating procedures established by the NCI PDMR. Briefly, all PDCs were thawed and cultured in Matrigel-coated flasks prepared with a working solution of 1X Ham's F-12 nutrient mix, without supplementation (Invitrogen, Waltham, MA, cat. 11765054), 100 U/mL penicillin-streptomycin (Invitrogen, cat. 15140122), and 2.5% Matrigel (Corning Inc., Corning, NY, cat. 354248) for the first three passages. The 947758-054-R-J2-PDC line was cultured in 6B/Colon 1A media, which includes advanced DMEM/F-12 (Thermo Fisher Scientific, cat. 12634028), 10 mM HEPES (Thermo Fisher Scientific, cat. 15630080), 1X GlutaMAX supplement (Thermo Fisher Scientific, cat. 35050061), 0.1 mg/mL primocin (InvivoGen, cat. ant-pm-2), 10% defined fetal bovine serum, heat inactivated (HyClone Laboratories Inc., cat. SH30070.03HI), 1.25 mM N-Acetyl-L-cysteine (Sigma-Aldrich, cat. A9165), 10 mM nicotinamide (Sigma-Aldrich, cat. N0636), 1X B-27 supplement (Thermo Fisher Scientific, cat. 17504044), 1X N-2 supplement (Thermo Fisher Scientific, cat. 17502048), and 10 microM Y-27632 dihydrochloride (Tocris Bioscience, cat. 1254). The 876862-298-R-J1-PDC was cultured in 6E media, which includes all 6B/Colon 1A media components plus 50% L-WRN conditioned media (ATCC, cat. CRL-3276), 50 ng/mL recombinant human EGF recombinant protein (hEGF; Thermo Fisher Scientific, cat. PHG0311), 10 ng/mL recombinant human fibroblast growth factor 10 (hGFG-10; PeproTech, cat. 100-26), 1 ng/mL recombinant human fibroblast growth factor 2 (hFGF-2; PeproTech, cat. 100-18B), and 1 µM prostaglandin E2 (PGE2; Tocris, cat. 2296). The 227483-062-R1-J1-PDC line was cultured in Panc media, containing all 6E components except hFGF-2, with the addition of 500 nM SB-431542 (Selleckchem, cat. S1067) and 10 nM gastrin (Tocris, cat. 3006). […]
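Also: viability measured after seven days of drug exposure.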
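For viability, T/C in this document: luminescence signal used as surrogate for viable cell amount; 100% = DMSO vehicle control wells.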

C=CC(=O)Nc1cc(Nc2nccc(-c3cn(C)c4ccccc34)n2)c(OC)cc1N(C)CCN(C)C + CN1CCN(c2cc(C(=O)Nc3cc4cc(-c5cnn(C)c5)ccc4cn3)ccn2)CC1
IC50 (curve of first compound, second compound 0.0316 µM): > 300 nM
IC50 (curve of first compound, second compound 0.1 µM): 58.9 nM
IC50 (curve of first compound, second compound 0.316 µM): < 0.949 nM
IC50 (curve of first compound, second compound 1 µM): < 0.949 nM
IC50 (curve of first compound, second compound 3.16 µM): < 0.949 nM
IC50 (curve of first compound, second compound 10 µM): < 0.949 nM
viability, T/C (second compound 0.0316 µM, first compound 0.000949 µM): 117%
viability, T/C (second compound 0.0316 µM, first compound 0.003 µM): 113%
viability, T/C (second compound 0.0316 µM, first compound 0.00949 µM): 105%
viability, T/C (second compound 0.0316 µM, first compound 0.03 µM): 114%
viability, T/C (second compound 0.0316 µM, first compound 0.0949 µM): 103%
viability, T/C (second compound 0.0316 µM, first compound 0.3 µM): 108%
viability, T/C (second compound 0.1 µM, first compound 0.000949 µM): 65.7%
viability, T/C (second compound 0.1 µM, first compound 0.003 µM): 71.8%
viability, T/C (second compound 0.1 µM, first compound 0.00949 µM): 53.4%
viability, T/C (second compound 0.1 µM, first compound 0.03 µM): 77%
viability, T/C (second compound 0.1 µM, first compound 0.0949 µM): 21.2%
viability, T/C (second compound 0.1 µM, first compound 0.3 µM): 54.9%
viability, T/C (second compound 0.316 µM, first compound 0.000949 µM): 10.4%
viability, T/C (second compound 0.316 µM, first compound 0.003 µM): 8.73%
viability, T/C (second compound 0.316 µM, first compound 0.00949 µM): 9.29%
viability, T/C (second compound 0.316 µM, first compound 0.03 µM): 6.59%
viability, T/C (second compound 0.316 µM, first compound 0.0949 µM): 5.77%
viability, T/C (second compound 0.316 µM, first compound 0.3 µM): 1.61%
viability, T/C (second compound 1 µM, first compound 0.000949 µM): 0.14%
viability, T/C (second compound 1 µM, first compound 0.003 µM): 0.17%
viability, T/C (second compound 1 µM, first compound 0.00949 µM): 0.15%
viability, T/C (second compound 1 µM, first compound 0.03 µM): 0.32%
viability, T/C (second compound 1 µM, first compound 0.0949 µM): 0.13%
viability, T/C (second compound 1 µM, first compound 0.3 µM): 0.91%
viability, T/C (second compound 3.16 µM, first compound 0.000949 µM): 0.1%
viability, T/C (second compound 3.16 µM, first compound 0.003 µM): 0.13%
viability, T/C (second compound 3.16 µM, first compound 0.00949 µM): 0.21%
viability, T/C (second compound 3.16 µM, first compound 0.03 µM): 0.09%
viability, T/C (second compound 3.16 µM, first compound 0.0949 µM): 0.17%
viability, T/C (second compound 3.16 µM, first compound 0.3 µM): 2.63%
viability, T/C (second compound 10 µM, first compound 0.000949 µM): 0.15%
viability, T/C (second compound 10 µM, first compound 0.003 µM): 0.28%
viability, T/C (second compound 10 µM, first compound 0.00949 µM): 0.5%
viability, T/C (second compound 10 µM, first compound 0.03 µM): 0.15%
viability, T/C (second compound 10 µM, first compound 0.0949 µM): 0.27%
viability, T/C (second compound 10 µM, first compound 0.3 µM): 0.37%

COC1C=CCC(C)C(C)S(=O)(=O)NC(=O)c2ccc3c(c2)N(CC2CCC21)CC1(CCCc2cc(Cl)ccc21)CO3 (centres undefined)
viability, T/C (compound 0.0316 µM): 88.5% and 107%
viability, T/C (compound 0.1 µM): 98.9% and 95.5%
viability, T/C (compound 0.316 µM): 61.2% and 104%
viability, T/C (compound 1 µM): 53.9% and 76%
viability, T/C (compound 3.16 µM): 35.8% and 49.4%
viability, T/C (compound 10 µM): 20.4% and 19%
IC50 (curve of compound): 1100 nM and 2930 nM
